# Columns and labels:
# β-galactosidase = β-galactosidase (Escherichia coli, UniProt P00722); assay: Conversion of Imiquimod-β-galactopyranoside (6) to Imiquimod by exogenous β-galactosidase, LC-MS/MS; format: biochemical, E. coli
# Protocol: (§1) For LC-MS/MS experiments, mobile phase A consisted of 0.05% formic acid and 0.2% acetic acid in water, and mobile phase B comprised 90% acetonitrile, 9.9% water, and 0.1% formic acid. Using a flow rate of 400 μL/min, mobile phase B 5% isocratic for 0.5 min, before gradient to 95% B over 2.2 min, followed by 95% isocratic for 0.1 min. The total chromatographic assay time (including time to equilibrate for the next run) was 4.0 min per sample. Optimized mass spectrometer parameters were as follows: collision gas, 20 psig; curtain gas, 20 psig; ion source gas 1, 60 psig; ion source gas 2, 40 psig; ion spray voltage, 5500 V; desolvation temperature, 600° C.; declustering potential, 70 V; entrance potential, 10 V; collision energy, 50 V; collision cell exit potential, 10 V. The substrate was detected using multiple reaction monitoring mode by monitoring the m/z fragmentation from 597.8 to 241.2 Da for (6) and the Imiquimod product was monitored for 241.2 to 185.1 Da fragmentation.
# To confirm the chemical identity of Imiquimod liberated by β-gal-mediated conversion of (6), an end-point assay was performed using 1 U of β-gal in 200 μL of 10 μm (6) incubated for 16 h (37° C., 5% CO2). To stop the reaction, 50 μL AO Quench Internal Standard (20 μg/mL 2-methyl-4(3H)-quinazolinone in 1 m formic acid) was added to the reaction. This aliquot was compared to a 200 μL sample of 10 μm (6) without β-gal enzyme.
# To determine the conversion of Imiquimod-β-Galactopyranoside (6) to Imiquimod in the presence of β-gal over time for exogenous experiments, aliquots (200 μL) of (6) at a concentration of 5 μm in DPBS were incubated with β-gal (1 U, 37° C., 5% CO2). To stop the reaction at the specified time points (0, 1, 2 min), 50 μL AO Quench Internal Standard (20 μg/mL 2-methyl-4(3H)-quinazolinone in 1 m formic acid) was added to each individual reaction. Depletion of (6) was measured by LC-MS/MS for each time point. […] Similar to above, aliquots of (6) for various time points (0, 0.25, 0.5, 1, 2, 3 h) were tested for conversion to immunostimulant by exogenous β-galactosidase.
# β-galactosidase from E. coli was diluted with sterile Dulbecco's Phosphate Buffer Saline (DPBS) to an initial concentration of 5,000 U/mL. Aliquots of this stock were diluted with additional DPBS to a concentration of 500 U/mL and 5 mU/mL. Because of the E. coli source for β-galactosidase, samples were filtered with a sterile 0.2 μm syringe filter to guard against potential residual bacteria. Absence of bacteria was confirmed prior to use; filtered samples were plated on an agar plate and incubated for 3 days (37° C., 5% CO2). No bacterial growth was observed from the filtered enzyme.
# [1] = system: β-galactosidase-enriched B16 melanoma cells; assay: Conversion of (6) to Imiquimod by β-galactosidase-enriched B16 cells, LC-MS/MS; format: cell-based, murine
# Protocol: as §1
# Murine melanoma cells (B16-F10, 5×10^6 cells) were removed from cell culture and pelletized via centrifuge (200 RCF, 0° C., 10 min). The supernatant was removed from the cell pellet, and cells were suspended in 1.5 mL of complete culture media (10% HI-FBS in DMEM) or preservative free FACS solution (10% HI-FBS in DPBS) that was pre-chilled on ice. Next, 15 μL of 0.5 mg/mL biotinylated α-gp-100 antibody (Abcam, UK) was added to the suspended cells, and the suspension was incubated on ice for 30 min with occasional shaking. Cells were then pelletized (200 RCF, 10 min, 0° C.) and washed 4 times each with 10 mL of chilled preservative free FACS solution (10% HI-FBS in DPBS). Washing Procedure: The cell pellet was suspended in 10 mL of FACS and centrifuged (200 RCF, 0° C., 10 min). Supernatant was removed from pellet, and the cells were suspended in subsequent chilled FACS solution for 1 min with constant shaking before this procedure was repeated. […] Enzyme enrichment (20-350 pU/cell) was quantified as average increase in enzymatic activity per cell determined by NPG colorimetric assay.
# [2] = system: AT3B-1 prostate cancer cell line (overexpresses P-glycoprotein 1); assay: AT3B-1 cells treated with pro-immunostimulant, absorbance at 420 nm; format: cell-based, rat; conditions: 10 mM dose, 2−200×10^4 cells/well, 72 h
# Protocol: To evaluate the disclosed compounds for their effect against multidrug-resistant cells and possible pathogen infection, compound 6 was exposed to a multidrug-resistant AT3B-1 prostate cancer cell line that is known to overexpress P-glycoprotein 1 (P-gp). AT3B-1 cells were plated in an optically clear bottomed 96-well plate at a range of densities (2−200×10^4 cells/well) in 180 μL of complete cell media. Each cell density was tested in triplicate with and without a 10 mM dose of compound 6. For wells with compound 6, 20 μL of a 100 mM stock solution of compound 6 in DMSO was used. As a control experiment, compound 6 was converted by exogenous α-Mannosidase (0.1 U/mL) in triplicate. The plate was incubated (37° C., 5% CO2) for 72 h before measuring the absorbance at 420 nm.
# The AT3B-1 cell line (ATCC CRL-2375, rat prostate epithelial malignant carcinoma) were grown in complete culture media composed of Roswell Park Memorial Institute (RPMI) 1640 medium with 4.5 g/L glucose, 2 mM L-glutamine, 10,000 U/mL penstrep, 10 mM HEPES and supplemented with 10% HI-FBS and 1 μM doxorubicin. Media was changed every 3-4 days omitting the doxorubicin, and cells were passaged once per week. Passaging involved changing media, counting, and seeding 3×10^5 cells in 35 mL of new complete media in a new T-175 culture flask.
# Sequence of β-galactosidase (P00722 2-1024): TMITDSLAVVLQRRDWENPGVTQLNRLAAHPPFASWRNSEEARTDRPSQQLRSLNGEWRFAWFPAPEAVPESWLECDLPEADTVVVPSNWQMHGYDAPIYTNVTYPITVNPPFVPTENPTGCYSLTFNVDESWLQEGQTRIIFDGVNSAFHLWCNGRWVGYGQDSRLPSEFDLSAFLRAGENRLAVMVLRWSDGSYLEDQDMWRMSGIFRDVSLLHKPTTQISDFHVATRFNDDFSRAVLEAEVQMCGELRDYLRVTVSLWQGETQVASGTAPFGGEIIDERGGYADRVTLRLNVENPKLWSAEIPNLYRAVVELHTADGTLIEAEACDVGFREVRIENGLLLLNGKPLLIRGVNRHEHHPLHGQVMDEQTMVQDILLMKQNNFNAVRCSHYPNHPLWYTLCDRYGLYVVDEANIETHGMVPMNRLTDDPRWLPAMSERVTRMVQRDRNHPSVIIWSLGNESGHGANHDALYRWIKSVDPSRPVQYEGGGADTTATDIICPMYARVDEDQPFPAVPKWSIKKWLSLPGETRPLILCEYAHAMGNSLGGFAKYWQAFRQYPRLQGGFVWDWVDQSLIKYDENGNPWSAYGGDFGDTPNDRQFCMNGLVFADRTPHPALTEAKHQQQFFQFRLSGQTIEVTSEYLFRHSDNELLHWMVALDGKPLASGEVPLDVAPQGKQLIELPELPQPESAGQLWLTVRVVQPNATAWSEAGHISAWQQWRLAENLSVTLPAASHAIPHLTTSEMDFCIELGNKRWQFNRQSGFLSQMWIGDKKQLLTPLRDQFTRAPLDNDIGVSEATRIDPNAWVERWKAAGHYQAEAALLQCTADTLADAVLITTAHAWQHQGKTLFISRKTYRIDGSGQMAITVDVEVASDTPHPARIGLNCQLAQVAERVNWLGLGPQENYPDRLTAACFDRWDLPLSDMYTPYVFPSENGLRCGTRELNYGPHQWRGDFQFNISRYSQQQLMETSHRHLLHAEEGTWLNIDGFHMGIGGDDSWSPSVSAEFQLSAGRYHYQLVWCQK
substance,measurement,setting,value
4-Imiquimod-2-nitrophenyl-galactopyranoside [compound 6],depletion of (6),"β-galactosidase; 5 μm in DPBS, β-gal 1 U, 0, 1, 2 min",rapid depletion
same,stability without β-gal enzyme (no residual Imiquimod observed),β-galactosidase; 10 μm (6) without β-gal enzyme,stable
same,conversion to Imiquimod (depletion of (6) and formation of Imiquimod),"β-galactosidase; exogenous β-galactosidase 5 mU, over 3 h",near quantitative conversion
same,conversion into Imiquimod,"β-galactosidase; β-galactosidase 1 U, 2 nmol (200 μL of 10 μm), 16 h, 37° C.",quantitative conversion
same,conversion of the compound,"[1]; β-galactosidase-enriched B16 cells (5 mU), over 3 h",quantitative conversion
same,conversion to Imiquimod,"[1]; β-galactosidase-enriched B16 cells, 1×10^5 cells/well, 35 mU/well, 24 h",near quantitative conversion
same,conversion into Imiquimod,"[1]; β-galactosidase-enriched B16 cells, after 3 h",> 36%
same,interaction with P-gp,[2],interacting with P-gp

# Reference: patent publication US11117918B2, “Enzyme-directed immunostimulant and uses thereof” (Washington State University, priority 2016, dated 2021)
